Measurements from US20110244589A1, “IN-VIVO PLATELET FUNCTION TEST BY ONLINE BLEEDING VOLUME MEASUREMENT” (priority 2009, published 2011).

Tests used:
platelet function [1] = conditions: background statement on the bleeding time test; cited from earlier work
platelet function [2] = test: bleeding time test (in-vivo); parameters: species or system patient; conditions: after taking an aspirin, versus before
Description: The bleeding time of a patient, which is the length of time blood continues to flow after the skin of a patient has been punctured or cut, has been used to identify patients having abnormal bleeding tendencies or platelet dysfunction or low number of platelets. The bleeding time test is an in-vivo test which involves making a standardized incision on the skin then applying a round disc of standardized blotter paper to the enlarging blood droplet adjacent to the incision for precisely thirty (30) seconds, then rotating the blotter paper and applying a fresh edge of the disc to the bleeding incision, and repeating this process until bleeding has stopped. The sequential blotches of blood on the blotter paper should not intersect. The total number of dried blotches of blood on the blotter paper divided by the number two (2) gives the duration of bleeding in minutes. […] The conditions for consistent blood flow and clotting may be set up. For example, the incision area may be wiped with alcohol which is allowed to completely dry. […] To calculate the total bleeding time, the number of blotches 28 may be counted and divided by two to arrive at the bleeding time to the nearest thirty (30) second interval. Alternatively, the bleeding time may be calculated with a stopwatch.

platelet function [3] = test: bleeding volume test (in-vivo, blotter paper blotch area); parameters: species or system patient; conditions: after taking an aspirin, versus before
Description: Bleeding volume is the volume of blood lost during a bleeding time test. Bleeding time is a total length of time between the moment a standardized tiny superficial incision is made in the skin of a patient and the moment the bleeding stops. […] The blotter paper 14 absorbs the blood 16 oozing out of the incision 18 until the patient 10 stops bleeding. One or more blotter papers 14 may be necessary to absorb all of the blood 16.
The in-vivo bleeding volume test results of the patient 10 is indicative of a patient's excessive bleeding tendencies, platelet function and platelet number.
Referring now to FIG. 1, a medical professional conducts the following procedure on the patient 10 being treated. The conditions for consistent blood flow and clotting may be set up. For example, the incision area may be wiped with alcohol which is allowed to completely dry. The patient may either sit in a chair with the forearm in a comfortable stable position or reclining with the forearm at heart level. A blood pressure (e.g., sphygmomanometer) cuff 26 may be placed on an upper arm 22 of the patient 10. By way of example and not limitation, the blood pressure cuff 26 may be inflated to about 40 mm Hg to regulate a constant venous blood pressure in the forearm 24 of the patient 10. […] A round disc blotter paper 14 typically used for determining bleeding time may be placed at the edge of the incision 18. […]

Structure (SMILES): CC(=O)Oc1ccccc1C(=O)O [aspirin]
- difference in mean bleeding time of persons who take aspirin and those that take no medication (platelet function [1]): ≤ 2 standard deviations
- increase the bleeding time (platelet function [2]): 72%
- increases bleeding volume (platelet function [3]): 400%
